From ChEMBL document CHEMBL1145390, “Synthesis and preliminary biological characterization of new semisynthetic derivatives of ramoplanin” (J Med Chem, 2007)
≈ marks a conversion by molar mass, not a printed value. Calls of active or inactive are those of the source. The rule behind the calls is not given here.

What was measured:
Enterococcus faecalis [1] = test: Antibacterial activity against Enterococcus faecalis after 24 hrs by broth microdilution method; assay type: functional; details: read-out: MIC
Staphylococcus aureus [2] = test: Antibacterial activity against Staphylococcus aureus Smith after 24 hrs by broth microdilution method; assay type: functional; details: read-out: MIC
Staphylococcus aureus [3] = test: Antibacterial activity against methicillin-resistant Staphylococcus aureus clinical isolate after 24 hrs by broth microdilution method; assay type: functional; details: read-out: MIC
Staphylococcus aureus [4] = test: Antibacterial activity against methicillin-resistant and vancomycin-intermediate resistant Staphylococcus aureus clinical isolate after 24 hrs by broth microdilution method; assay type: functional; details: read-out: MIC
Staphylococcus aureus [5] = test: Antibacterial activity against vancomycin-intermediate resistant Staphylococcus aureus clinical isolate after 24 hrs by broth microdilution method; assay type: functional
Streptococcus pyogenes = test: Antibacterial activity against Streptococcus pyogenes C203 after 24 hrs by broth microdilution method; assay type: functional; details: C203, 24 h, read-out: MIC
Enterococcus faecalis [6] = test: Antibacterial activity against vancomycin A-resistant Enterococcus faecalis after 24 hrs by broth microdilution method; assay type: functional; details: read-out: MIC
Enterococcus faecium [7] = test: Antibacterial activity against Enterococcus faecium after 24 hrs by broth microdilution method; assay type: functional; details: for MIC: read-out: MIC
Enterococcus faecium [8] = test: Antibacterial activity against vancomycin A-resistant Enterococcus faecium clinical isolate after 24 hrs by broth microdilution method; assay type: functional; details: read-out: MIC
Escherichia coli = test: Antibacterial activity against Escherichia coli SKF-12140 after 24 hrs by broth microdilution method; assay type: functional; details: read-out: MIC
Candida albicans = test: Antifungal activity against Candida albicans SKF-2270 after 24 hrs by broth microdilution method; assay type: functional; details: read-out: MIC
[9] = Toxicity assessed as hemolysis in erythrocytes at 1200 mg/L; assay type: cell-based, Erythrocyte; details: human, read-out: Activity
Staphylococcus aureus [10] = test: Antibacterial activity against vancomycin-intermediate resistant Staphylococcus aureus clinical isolate in presence of 30% bovine serum after 24 hrs by broth microdilution method; assay type: functional
Staphylococcus aureus [11] = test: Antibacterial activity against Staphylococcus aureus Smith in presence of 30% bovine serum after 24 hrs by broth microdilution method; assay type: functional
Enterococcus faecalis [12] = test: Antibacterial activity against vancomycin-resistant Enterococcus faecalis in presence of 30% bovine serum after 24 hrs by broth microdilution method; assay type: functional
Enterococcus faecium [13] = test: Antibacterial activity against vancomycin A-resistant Enterococcus faecium clinical isolate in presence of 30% bovine serum after 24 hrs by broth microdilution method; assay type: functional
[14] = Toxicity assessed as hemolysis in erythrocytes at 600 mg/L; assay type: cell-based, Erythrocyte; details: human, read-out: Activity
[15] = Toxicity assessed as hemolysis in erythrocytes at 300 mg/L; assay type: cell-based, Erythrocyte; details: human, read-out: Activity
[16] = Toxicity assessed as hemolysis in erythrocytes at 180 mg/L; assay type: cell-based, Erythrocyte; details: human, erythrocytes; read-out: Activity
[17] = Toxicity assessed as hemolysis in erythrocytes at 90 mg/L; assay type: cell-based, Erythrocyte; details: human, erythrocytes; read-out: Activity
[18] = Toxicity assessed as hemolysis in erythrocytes at 800 mg/L; assay type: cell-based, Erythrocyte; details: human, read-out: Activity
[19] = Toxicity assessed as hemolysis in erythrocytes at 400 mg/L; assay type: cell-based, Erythrocyte; details: human, read-out: Activity
[20] = Toxicity assessed as hemolysis in erythrocytes at 200 mg/L; assay type: cell-based, Erythrocyte; details: human, read-out: Activity

Structure (SMILES) | MIC (Enterococcus faecalis [1]) [µg/mL] | MIC (Staphylococcus aureus [2]) [µg/mL] | MIC (Staphylococcus aureus [3]) [µg/mL] | MIC (Staphylococcus aureus [4]) [µg/mL] | MIC (Staphylococcus aureus [5]) [µg/mL] | MIC (Streptococcus pyogenes) [µg/mL] | MIC (Enterococcus faecalis [6]) [µg/mL] | MIC (Enterococcus faecium [8]) [µg/mL] | MIC (Escherichia coli) [µg/mL] | MIC (Candida albicans) [µg/mL] | hemolysis at 1200 mg/L [9] [%] | MIC (Staphylococcus aureus [10]) [µg/mL] | MIC (Staphylococcus aureus [11]) [µg/mL] | MIC (Enterococcus faecalis [12]) [µg/mL] | MIC (Enterococcus faecium [13]) [µg/mL] | hemolysis at 600 mg/L [14] [%] | hemolysis at 300 mg/L [15] [%] | MIC (Enterococcus faecium [7]) [µg/mL] | hemolysis at 180 mg/L [16] [%] | hemolysis at 90 mg/L [17] [%] | further results
Cc1ccccc1C(C)C(=O)N[C@@H](CC(N)=O)C(=O)NC[C@@H]1C(=O)N[C@H](c2ccc(O)cc2)C(=O)N[C@H](CCCN)C(=O)N[C@H](C(C)C)C(=O)N[C@@H](c2ccc(O)cc2)C(=O)N[C@H](c2ccc(O)cc2)C(=O)N[C@@H]([C@@H](C)O)C(=O)N[C@@H](Cc2ccccc2)C(=O)N[C@H](CCCN)C(=O)N[C@@H](c2ccc(O[C@H]3O[C@H](CO)[C@@H](O)[C@H](O)[C@@H]3O[C@H]3O[C@H](CO)[C@@H](O)[C@H](O)[C@@H]3O)cc2)C(=O)N[C@H]([C@@H](C)O)C(=O)N[C@@H](c2ccc(O)cc2)C(=O)NCC(=O)N[C@@H](CC(C)C)C(=O)N[C@H](C)C(=O)N[C@@H](c2ccc(O)c(Cl)c2)C(=O)O[C@@H]1C(N)=O (stereo partly specified) | 0.5 (≈ 0.194 µM) | 0.25 (≈ 0.097 µM) | 0.5 (≈ 0.194 µM) | 4 (≈ 1.55 µM) | 2 (≈ 0.776 µM) | ≤ 0.125 | 1 (≈ 0.388 µM) | 1 (≈ 0.388 µM) | > 128 | > 128 | 45 | 4 | 1 | 2 | 8 | 4 | 2 | – | – | – | Activity (Enterococcus faecium [7]): inactive
Cc1ccc(CC(=O)N[C@@H](CC(N)=O)C(=O)NC[C@@H]2C(=O)N[C@H](c3ccc(O)cc3)C(=O)N[C@H](CCCN)C(=O)N[C@H](C(C)C)C(=O)N[C@@H](c3ccc(O)cc3)C(=O)N[C@H](c3ccc(O)cc3)C(=O)N[C@@H]([C@@H](C)O)C(=O)N[C@@H](Cc3ccccc3)C(=O)N[C@H](CCCN)C(=O)N[C@@H](c3ccc(O[C@H]4O[C@H](CO)[C@@H](O)[C@H](O)[C@@H]4O[C@H]4O[C@H](CO)[C@@H](O)[C@H](O)[C@@H]4O)cc3)C(=O)N[C@H]([C@@H](C)O)C(=O)N[C@@H](c3ccc(O)cc3)C(=O)NCC(=O)N[C@@H](CC(C)C)C(=O)N[C@H](C)C(=O)N[C@@H](c3ccc(O)c(Cl)c3)C(=O)O[C@@H]2C(N)=O)cc1.Cl | 0.25 | ≤ 0.125 | ≤ 0.125 | 4 | 2 | ≤ 0.125 | ≤ 0.125 | 0.5 | > 128 | > 128 | 9 | 4 | 0.5 | 2 | 2 | 11 | 2 | 0.5 | 0 | 0 | –
CC(C)C[C@@H]1NC(=O)CNC(=O)[C@H](c2ccc(O)cc2)NC(=O)[C@@H]([C@@H](C)O)NC(=O)[C@H](c2ccc(O[C@H]3O[C@H](CO)[C@@H](O)[C@H](O)[C@@H]3O[C@H]3O[C@H](CO)[C@@H](O)[C@H](O)[C@@H]3O)cc2)NC(=O)[C@@H](CCCN)NC(=O)[C@H](Cc2ccccc2)NC(=O)[C@H]([C@@H](C)O)NC(=O)[C@@H](c2ccc(O)cc2)NC(=O)[C@H](c2ccc(O)cc2)NC(=O)[C@@H](C(C)C)NC(=O)[C@@H](CCCN)NC(=O)[C@@H](c2ccc(O)cc2)NC(=O)[C@@H](CNC(=O)[C@H](CC(N)=O)NC(=O)Cc2cccc3ccccc23)[C@@H](C(N)=O)OC(=O)[C@H](c2ccc(O)c(Cl)c2)NC(=O)[C@@H](C)NC1=O.Cl | ≤ 0.06 | ≤ 0.06 | ≤ 0.06 | 2 | 0.25 | ≤ 0.06 | ≤ 0.06 | ≤ 0.06 | > 128 | > 128 | – | 1 | 0.25 | 0.25 | 0.5 | – | – | 0.125 | 28 | 15 | hemolysis at 800 mg/L [18]: 98%; hemolysis at 400 mg/L [19]: 60%; hemolysis at 200 mg/L [20]: 30%
Cc1cccc(CC(=O)N[C@@H](CC(N)=O)C(=O)NC[C@@H]2C(=O)N[C@H](c3ccc(O)cc3)C(=O)N[C@H](CCCN)C(=O)N[C@H](C(C)C)C(=O)N[C@@H](c3ccc(O)cc3)C(=O)N[C@H](c3ccc(O)cc3)C(=O)N[C@@H]([C@@H](C)O)C(=O)N[C@@H](Cc3ccccc3)C(=O)N[C@H](CCCN)C(=O)N[C@@H](c3ccc(O[C@H]4O[C@H](CO)[C@@H](O)[C@H](O)[C@@H]4O[C@H]4O[C@H](CO)[C@@H](O)[C@H](O)[C@@H]4O)cc3)C(=O)N[C@H]([C@@H](C)O)C(=O)N[C@@H](c3ccc(O)cc3)C(=O)NCC(=O)N[C@@H](CC(C)C)C(=O)N[C@H](C)C(=O)N[C@@H](c3ccc(O)c(Cl)c3)C(=O)O[C@@H]2C(N)=O)c1 | 0.25 (≈ 0.0976 µM) | ≤ 0.125 | 0.25 (≈ 0.0976 µM) | 2 (≈ 0.781 µM) | 1 (≈ 0.39 µM) | ≤ 0.125 | ≤ 0.125 | 0.5 (≈ 0.195 µM) | > 128 | > 128 | 5 | 4 | 1 | 1 | 4 | 0 | 0 | 0.5 (≈ 0.195 µM) | – | – | –
Cc1cccc(C)c1CC(=O)N[C@@H](CC(N)=O)C(=O)NC[C@@H]1C(=O)N[C@H](c2ccc(O)cc2)C(=O)N[C@H](CCCN)C(=O)N[C@H](C(C)C)C(=O)N[C@@H](c2ccc(O)cc2)C(=O)N[C@H](c2ccc(O)cc2)C(=O)N[C@@H]([C@@H](C)O)C(=O)N[C@@H](Cc2ccccc2)C(=O)N[C@H](CCCN)C(=O)N[C@@H](c2ccc(O[C@H]3O[C@H](CO)[C@@H](O)[C@H](O)[C@@H]3O[C@H]3O[C@H](CO)[C@@H](O)[C@H](O)[C@@H]3O)cc2)C(=O)N[C@H]([C@@H](C)O)C(=O)N[C@@H](c2ccc(O)cc2)C(=O)NCC(=O)N[C@@H](CC(C)C)C(=O)N[C@H](C)C(=O)N[C@@H](c2ccc(O)c(Cl)c2)C(=O)O[C@@H]1C(N)=O | ≤ 0.125 | ≤ 0.125 | ≤ 0.125 | 1 (≈ 0.388 µM) | 0.25 (≈ 0.097 µM) | ≤ 0.125 | – | 0.25 (≈ 0.097 µM) | > 128 | > 128 | 43 | 2 | 0.5 | 1 | 4 | 13 | 0 | 0.5 (≈ 0.194 µM) | – | – | –
CC(C)C[C@@H]1NC(=O)CNC(=O)[C@H](c2ccc(O)cc2)NC(=O)[C@@H]([C@@H](C)O)NC(=O)[C@H](c2ccc(O[C@H]3O[C@H](CO)[C@@H](O)[C@H](O)[C@@H]3O[C@H]3O[C@H](CO)[C@@H](O)[C@H](O)[C@@H]3O)cc2)NC(=O)[C@@H](CCCN)NC(=O)[C@H](Cc2ccccc2)NC(=O)[C@H]([C@@H](C)O)NC(=O)[C@@H](c2ccc(O)cc2)NC(=O)[C@H](c2ccc(O)cc2)NC(=O)[C@@H](C(C)C)NC(=O)[C@@H](CCCN)NC(=O)[C@@H](c2ccc(O)cc2)NC(=O)[C@@H](CNC(=O)[C@H](CC(N)=O)NC(=O)Cc2ccccc2[N+](=O)[O-])[C@@H](C(N)=O)OC(=O)[C@H](c2ccc(O)c(Cl)c2)NC(=O)[C@@H](C)NC1=O | 2 (≈ 0.771 µM) | 0.5 (≈ 0.193 µM) | 1 (≈ 0.386 µM) | 4 (≈ 1.54 µM) | 2 (≈ 0.771 µM) | ≤ 0.125 | 1 (≈ 0.386 µM) | 2 (≈ 0.771 µM) | > 128 | > 128 | 0 | 4 | 1 | 2 | 8 | 0 | 1 | 4 (≈ 1.54 µM) | – | – | –
